Measured values taken from PubChem BioAssay AID2060506 (Molecular Pharmacology Branch, DTP, NCI, 2025).

Test system: 598228-144-R-J1-PDC complex spheroid viability
Test: Anticancer human tumor 598228-144-R-J1-PDC patient-derived serous endometrial adenocarcinoma cell line growth inhibition [GQUAD]
Settings: for IC50: curve of first compound; for viability, T/C: stronger effect = lower value; active = viability on the fitted dose curve at most 10% of control; inactive = the rest
Description: DNA G-quadruplex Stabilizer Agents in Combinations in Complex Spheroids
A high-throughput screen of multi-cell type tumor spheroids was designed to identify active combinations of DNA G-quadruplex stabilizer agents and targeted small molecules. Complex spheroids include a stromal component modeled by human endothelial cells (HUVEC) and fibroblasts modeled by human mesenchymal stem cells (MSCs). The concentration ranges selected for each drug and investigational agent were based upon clinically achievable concentrations if the clinical Cmax of the agent was known.
Compounds. The drugs and investigational agents: pidnarulex (CX-5461; NSC782164), APTO-253 (NSC789042), BRACO-19 (NSC847499), peposertib (NSC802822), ceralasertib (NSC780249), elimusertib (NSC800525), camonsertib (NSC841442), AZD-1390 (NSC803789), olaparib (NSC753686), talazoparib (NSC767125), ART-558 (NSC835418), sotorasib (NSC818433), MRTX-1133 (NSC836407), SN-38 (NSC673596), topotecan (NSC609699), etoposide (NSC141540), doxorubicin (NSC123127), gemcitabine (NSC613327), 5-fluorouracil (NSC19893), paclitaxel (NSC125973), vemurafenib (NSC761431), panobinostat (NSC761190), R-306465 (JNJ-16241199; NSC773264), adavosertib (NSC754352), TP-3654 (NSC805149), carboplatin (NSC241240), KSQ-4279 (NSC840948), and staurosporine (NSC755774) were obtained from the National Cancer Institute (NCI) Developmental Therapeutics Program Chemical Repository (34). The FDA-approved anticancer drug set is available from the NCI Developmental Therapeutics Program. […] The stock solutions were prepared in dimethyl sulfoxide (DMSO, Sigma-Aldrich, St. Louis, MO, cat. D2650) at 800-fold the tested concentration and stored at -70 degrees C prior to their use. All drugs and investigational agents were tested over a range starting from a high concentration at or near the clinical Cmax and decreasing in half-log increments. If the clinical Cmax for an agent had not been determined, the highest concentration tested was 10 microM.
2.3 Cell Culture. All cells were maintained in an incubator at 37 degrees C and 5% CO2 with 95% humidity. The PDC lines were cultured according to standard operating procedures established by the NCI PDMR. All PDCs were thawed and cultured in Matrigel-coated flasks prepared with a working solution of 1X Ham's F-12 nutrient mix, without supplementation (Invitrogen, cat. 11765054), 100 U/mL penicillin-streptomycin (Invitrogen, cat. 15140122), and 2.5% Matrigel (Corning Inc., cat. 354248) for the first three passages. The 857933-349-R-J2-PDC line was cultured in 6C/Colon 1B media, which includes advanced DMEM/F-12 (Thermo Fisher Scientific, cat. 12634028), 10 mM HEPES (Thermo Fisher Scientific, cat. 15630080), 1X GlutaMAX supplement (Thermo Fisher Scientific, cat. 35050061), 0.1 mg/mL primocin (InvivoGen, cat. ant-pm-2), 10% defined fetal bovine serum, heat inactivated (HyClone Laboratories Inc., cat. SH30070.03HI), 50% L-WRN conditioned media (ATCC, cat. CRL-3276), 1.25 mM N-Acetyl-L-cysteine (Sigma-Aldrich, cat. A9165), 10 mM nicotinamide (Sigma-Aldrich, cat. N0636), 1X B-27 supplement (Thermo Fisher Scientific, cat. 17504044), 1X N-2 supplement (Thermo Fisher Scientific, cat. 17502048), 10 microM Y-27632 dihydrochloride (Tocris Bioscience, cat. 1254), and 50 ng/mL human EGF recombinant protein (Thermo Fisher Scientific, cat. PHG0311). The 485176-168-R4-J1-PDC line was cultured in Panc media, which includes all 6C/Colon 1B media components plus 100 ng/mL human FGF-10 (Thermo Fisher Scientific, cat. 100-26), 500 nM SB-431542 (Selleckchem, cat. S1067), and gastrin (Tocris, cat. 3006).
[…]

[1] = second compound 0.0316 µM, first compound 0.0316 µM
[2] = second compound 0.0316 µM, first compound 0.1 µM
[3] = second compound 0.0316 µM, first compound 0.316 µM
[4] = second compound 0.0316 µM, first compound 1 µM
[5] = second compound 0.0316 µM, first compound 3.16 µM
[6] = second compound 0.0316 µM, first compound 10 µM
[7] = second compound 0.1 µM, first compound 0.0316 µM
[8] = second compound 0.1 µM, first compound 0.1 µM
[9] = second compound 0.1 µM, first compound 0.316 µM
[10] = second compound 0.1 µM, first compound 1 µM
[11] = second compound 0.1 µM, first compound 3.16 µM
[12] = second compound 0.1 µM, first compound 10 µM
[13] = second compound 0.316 µM, first compound 0.0316 µM
[14] = second compound 0.316 µM, first compound 0.1 µM
[15] = second compound 0.316 µM, first compound 0.316 µM
[16] = second compound 0.316 µM, first compound 1 µM
[17] = second compound 0.316 µM, first compound 3.16 µM
[18] = second compound 0.316 µM, first compound 10 µM
[19] = second compound 1 µM, first compound 0.0316 µM
[20] = second compound 1 µM, first compound 0.1 µM
[21] = second compound 1 µM, first compound 0.316 µM
[22] = second compound 1 µM, first compound 1 µM
[23] = second compound 1 µM, first compound 3.16 µM
[24] = second compound 1 µM, first compound 10 µM
[25] = second compound 3.16 µM, first compound 0.0316 µM
[26] = second compound 3.16 µM, first compound 0.1 µM
[27] = second compound 3.16 µM, first compound 0.316 µM
[28] = second compound 3.16 µM, first compound 1 µM
[29] = second compound 3.16 µM, first compound 3.16 µM
[30] = second compound 3.16 µM, first compound 10 µM
[31] = second compound 10 µM, first compound 0.0316 µM
[32] = second compound 10 µM, first compound 0.1 µM
[33] = second compound 10 µM, first compound 0.316 µM
[34] = second compound 10 µM, first compound 1 µM
[35] = second compound 10 µM, first compound 3.16 µM
[36] = second compound 10 µM, first compound 10 µM
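Also: spheroids exposed to the agents for one week before reading.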
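For viability, T/C in this document: percent of vehicle DMSO control viability so 100% = untreated growth.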

CCCS(=O)(=O)Nc1ccc(F)c(C(=O)c2c[nH]c3ncc(-c4ccc(Cl)cc4)cc23)c1F + CN(C)c1ccc(Nc2c3ccc(NC(=O)CCN4CCCC4)cc3nc3cc(NC(=O)CCN4CCCC4)ccc23)cc1
7.08 µM: IC50 (second compound 3.16 µM)
7.44 µM: IC50 (second compound 0.1 µM)
7.87 µM: IC50 (second compound 0.0316 µM)
inactive: viability, T/C [1] 105% | viability, T/C [2] 121% | viability, T/C [3] 93.8% | viability, T/C [4] 107% | viability, T/C [5] 110% | viability, T/C [6] 34.8% | viability, T/C [7] 94.3% | viability, T/C [8] 104% | viability, T/C [9] 111% | viability, T/C [10] 109% | viability, T/C [11] 123% | viability, T/C [12] 29.8% | viability, T/C [13] 122% | viability, T/C [14] 108% | viability, T/C [15] 97.1% | viability, T/C [16] 124% | viability, T/C [17] 93.2% | viability, T/C [18] 34.1% | viability, T/C [19] 89.3% | viability, T/C [20] 99.2% | viability, T/C [21] 110% | viability, T/C [22] 133% | viability, T/C [23] 108% | viability, T/C [24] 32.6% | viability, T/C [25] 94.1% | viability, T/C [26] 95.4% | viability, T/C [27] 80.8% | viability, T/C [28] 118% | viability, T/C [29] 100% | viability, T/C [30] 29.3% | viability, T/C [31] 103% | viability, T/C [32] 75.3% | viability, T/C [33] 100% | viability, T/C [34] 86.8% | viability, T/C [35] 74% | viability, T/C [36] 19.2%
7.33 µM: IC50 (second compound 0.316 µM)
5.21 µM: IC50 (second compound 10 µM)
7.65 µM: IC50 (second compound 1 µM)

C#Cc1c(F)ccc2cc(O)cc(-c3ncc4c(N5CC6CCC(C5)N6)nc(OCC56CCCN5CC(F)C6)nc4c3F)c12 (centres undefined) + Cc1[nH]c2ccc(F)cc2c1-c1nc2c3cccnc3c3ncccc3c2[nH]1
inactive: viability, T/C [1] 124% | viability, T/C [2] 88.7% | viability, T/C [3] 120% | viability, T/C [4] 100% | viability, T/C [5] 114% | viability, T/C [6] 111% | viability, T/C [7] 121% | viability, T/C [8] 126% | viability, T/C [9] 97.2% | viability, T/C [10] 107% | viability, T/C [11] 143% | viability, T/C [12] 130% | viability, T/C [13] 93.7% | viability, T/C [14] 87.4% | viability, T/C [15] 87.9% | viability, T/C [16] 102% | viability, T/C [17] 115% | viability, T/C [18] 98.7% | viability, T/C [19] 74.7% | viability, T/C [20] 59.1% | viability, T/C [21] 54.3% | viability, T/C [22] 59.7% | viability, T/C [23] 71.9% | viability, T/C [24] 62% | viability, T/C [25] 37% | viability, T/C [26] 51.8% | viability, T/C [27] 44.6% | viability, T/C [28] 40.2% | viability, T/C [29] 44.2% | viability, T/C [30] 31.9% | viability, T/C [31] 69.2% | viability, T/C [32] 62.3% | viability, T/C [33] 64.3% | viability, T/C [34] 58.3% | viability, T/C [35] 60% | viability, T/C [36] 52.8%
> 10 µM: IC50 (second compound 0.0316 µM) | IC50 (second compound 0.1 µM) | IC50 (second compound 0.316 µM) | IC50 (second compound 1 µM) | IC50 (second compound 10 µM)
< 0.0316 µM: IC50 (second compound 3.16 µM)
